Assays:
GST-XIAP BIR3RING = molecular target: T1, GST-XIAP BIR3RING (Homo sapiens, UniProt P98170); experiment: Fluorescence polarization-based competition assay, XIAP Bir3-RING; type: binding
T1 construct: made in house; host or cells: E. coli DH5-alpha
Protocol: GST-XIAP BIR3RING: XIAP coding sequence amino acids 246-497 cloned into PGEX2T1 via BamH1 and AVA I. The plasmid was transformed into E. coli DH5α for use in protein expression and purification.
(§1) A fluorescent peptide probe, Fmoc-Ala-Val-Pro-Phe-Tyr(t-Bu)-Leu-Pro-Gly(t-Bu)-Gly-OH was prepared using standard Fmoc chemistry on 2-chlorotrityl chloride resin (Int. J. Pept. Prot. Res. 38:555-561, 1991). Cleavage from the resin was performed using 20% acetic acid in dichloromethane (DCM), which left the side chain still blocked. The C-terminal protected carboxylic acid was coupled to 4′-(aminomethyl)fluorescein (Molecular Probes, A-1351; Eugene, Oreg.) using excess diisopropylcarbodiimide (DIC) in dimethylformamide (DMF) at room temperature and was purified by silica gel chromatography (10% methanol in DCM). The N-terminal Fmoc protecting group was removed using piperidine (20%) in DMF, and purified by silica gel chromatography (20% methanol in DCM, 0.5% HOAc). Finally, the t-butyl side chain protective groups were removed using 95% trifluoroacetic acid containing 2.5% water and 2.5% triisopropyl silane. […] Compound #174 was also used as a fluorescent probe in this assay.
(§2) For all assays, the fluorescence and fluorescence-polarization was evaluated using a Tecan Polarion instrument with the excitation filter set at 485 nm and the emission filter set at 535 nm. For each assay, the concentration of the target protein was first establish by titration of the selected protein in order to produce a linear dose-response signal when incubated alone in the presence of the fluorescent probe. Upon establishing these conditions, the compounds potency (IC50) and selectivity, was assessed in the presence of a fix defined-amount of target protein and fluorescent probe and a 10 point serial dilution of the selected compounds. For each IC50 curve, the assays were run as followed: 25 ul/well of diluted compound in 50 mM MES buffer pH 6.5 were added into a black 96 well plate then 25 ul/well of bovine serum albumin (BSA) at 0.5 mg/ml in 50 mM MES pH 6.5. Auto-fluorescence for each compound was first assessed by performing a reading of the compound/BSA solution alone. Then 25 ul of the fluorescein probe diluted into 50 mM MES containing 0.05 mg/ml BSA were added and a reading to detect quenching of fluorescein signal done. Finally 25 ul/well of the target or control protein (GST-BIRs) diluted at the appropriate concentration in 50 mM MES containing 0.05 mg/ml BSA were added and the fluorescence polarization evaluated.
(§3) For each assay the relative polarization-fluorescence units were plotted against the final concentrations of compound and the IC50 calculated using the Grad pad prism software and/or Cambridge soft. The ki value were derived from the calculated IC50 value as described above and according to the equation described in Nikolovska-Coleska, Z. (2004) Anal Biochem 332, 261-273.
(§4) Compounds exemplified in Table 6 were tested and found to have IC50s in the following ranges: A: >10 μM; B: <10 μM; C: <1 μM using the fluorescence polarization assay, as shown in Table 5. Each of the IC50s was calculated from Graph Pad.

GST-HIAP2 (cIAP-1) BIR 3 = molecular target: T2, GST-HIAP2 (cIAP-1) BIR 3 (Homo sapiens, UniProt Q13490); experiment: Fluorescence polarization-based competition assay, cIAP-1 Bir3; type: binding
T2 construct: made in house; host or cells: E. coli DH5-alpha
Protocol: GST-HIAP2 (cIAP-1) BIR 3: HIAP2 coding sequence from amino acids 251-363 cloned into PGex4T3 via BamH1 and XhoI. The plasmid was transformed into E. coli DH5α for use in protein expression and purification.
as §1, §2, §3, §4

GST-HIAP1(cIAP-2) BIR 3 = molecular target: T3, GST-HIAP1(cIAP-2) BIR 3 (Homo sapiens, UniProt Q13489); experiment: Fluorescence polarization-based competition assay, cIAP-2 Bir3; type: binding
T3 construct: made in house; host or cells: E. coli DH5-alpha
Protocol: GST-HIAP1(cIAP-2) BIR 3: HIAP1 coding sequence from amino acids 236-349, cloned into PGex4T3 via BamH1 and XhoI. The plasmid was transformed into E. coli DH5α for use in protein expression and purification.
as §1, §2, §3, §4

[1] = molecular target: T4, XIAP Bir3-RING (GST-BIR 3RING) (Homo sapiens, UniProt P98170); experiment: Caspase de-repression assay using cellular extracts (apoptosome), XIAP Bir3-RING; type: biochemical; conditions: 293 cell S100 extract
T4 construct: made in house; host or cells: E. coli DH5-alpha
Protocol: (§5) 100 ug of 293 cell S100 extract and 0.25 uM-2 uM of GST-Xiap fusion protein (GST-BIR 3RING, GST-linker BIR2 BIR3RING) were co-incubated with serial dilutions of compound (0.02 uM-40 uM). Extracts were activated by adding 1 mM dATP, 0.1 mM ALLN, 133 ug Cytochrome C (final concentrations), and incubating at 37° C. for 25 minutes. All reactions and dilutions used S100 buffer (50 mM Pipes pH 7.0, 50 mM KCl, 0.5 mM EGTA pH 8.0, 2 mM MgCl2 supplemented with 1/1000 dilutions of 2 mg/ml Cytochalisin B, 2, mg/ml Chymotstatin, Leupeptin, Pepstatin, Antipain, 0.1M PMSF, 1M DTT). Final reaction volume was 30 ul. Caspase-3 activity was measured by overlaying 30 ul of a 0.4 mM DEVD-AMC solution. AMC cleavage was measured in a TECAN spectrophotometer at 360 nm excitation and 444 nm emission, on a kinetic cycle of 1 hour with readings taken every 5 minutes. Caspase activity was calculated as Vo of AMC fluorescence/sec. Caspase de-repression by our compounds were compared to fully activated extract and activated extract repressed by the presence of XIAP fusion protein.
(§6) Results: Compounds were also tested in the apoptosome assay and the linker-BIR2/caspase-3 inhibition assay and found to have IC50s in the following ranges: A: >10 μM; B: <10 μM; C: <1 μM, as shown in Table 7.

[2] = molecular target: T5, XIAP Bir2-Bir3-RING (GST-linker BIR2 BIR3RING) (Homo sapiens, UniProt P98170); experiment: Caspase de-repression assay using cellular extracts (apoptosome), XIAP Bir2-Bir3-RING; type: biochemical; conditions: 293 cell S100 extract
T5 construct: made in house; host or cells: E. coli DH5-alpha
Protocol: as §5, §6

[3] = molecular target: T6, caspase-3 inhibited by linker BIR2-BIR3-RING of XIAP (Homo sapiens, UniProt P98170); experiment: Caspase-3 linker-BIR2-BIR3-RING derepression assay; type: biochemical
T6 construct: made in house; host or cells: E. coli DH5-alpha (GST-XIAP); E. coli AD494 (His-caspase-3)
Protocol: In order to determine the relative activity of the selected compound against BIR2, an in vitro assay was used where caspase-3 was inhibited by linker-BIR2 or linker BIR2-BIR3-RING of XIAP. Briefly, 1.5 ul of the enzyme, 0.25 uM to 2 uM of GST-Xiap fusion protein (GST-linker BIR2, GST-linker BIR2BIR3RING) were co-incubated with serial dilutions of compound (80 uM-0.04 uM). Caspase 3 activity was measured by overlaying 25 ul of a 0.4 mM DEVD-AMC solution. Final reaction volume was 100 ul. All dilutions were performed in caspase buffer (50 mM Hepes pH 7.4, 100 mM NaCl, 10% sucrose, 1 mM EDTA, 10 mM DTT, 0.1% CHAPS (Stennicke, H. R., and Salvesen, G. S. (1997). Biochemical characteristics of caspase-3, -6, -7, and -8. J. Biol. Chem. 272, 25719-25723)).
The fluorescent AMC released from the caspase-3 hydrolysis of the substrate was measured in a TECAN spectrophotometer at 360 nm excitation and 444 nm emission, on a kinetic cycle of 30 minutes with readings taken every 2 minutes. Caspase activity was calculated as Vo of AMC fluorescence/sec. Caspase de-repression by our compounds were compared to caspase-3 alone and caspase 3 repressed by the presence of XIAP fusion protein.
as §6

T4 sequence (P98170 246-497): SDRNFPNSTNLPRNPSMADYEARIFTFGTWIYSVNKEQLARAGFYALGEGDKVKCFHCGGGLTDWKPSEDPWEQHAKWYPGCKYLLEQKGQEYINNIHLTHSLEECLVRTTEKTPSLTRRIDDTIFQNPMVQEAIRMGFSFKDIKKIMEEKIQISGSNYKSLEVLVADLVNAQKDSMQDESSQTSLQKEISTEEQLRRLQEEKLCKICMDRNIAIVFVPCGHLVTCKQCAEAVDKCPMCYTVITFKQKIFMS
T1 sequence (P98170 246-497): as above
T3 sequence (Q13489 236-349): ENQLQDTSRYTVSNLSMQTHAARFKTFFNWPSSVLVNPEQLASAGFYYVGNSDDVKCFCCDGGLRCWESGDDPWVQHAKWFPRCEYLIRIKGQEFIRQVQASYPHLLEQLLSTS
T5 sequence (P98170 93-497): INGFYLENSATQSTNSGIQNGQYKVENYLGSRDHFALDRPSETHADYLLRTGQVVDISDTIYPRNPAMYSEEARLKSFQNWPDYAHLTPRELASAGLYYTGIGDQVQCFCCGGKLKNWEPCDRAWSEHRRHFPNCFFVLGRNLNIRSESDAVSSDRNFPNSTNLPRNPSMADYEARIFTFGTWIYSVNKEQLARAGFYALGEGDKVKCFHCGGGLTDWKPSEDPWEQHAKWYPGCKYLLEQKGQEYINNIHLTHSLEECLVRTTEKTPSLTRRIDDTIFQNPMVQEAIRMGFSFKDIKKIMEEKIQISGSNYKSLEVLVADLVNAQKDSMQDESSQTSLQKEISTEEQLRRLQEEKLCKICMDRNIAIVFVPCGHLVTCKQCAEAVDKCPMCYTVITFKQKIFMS
T6 sequence (P98170 93-497): as above
T2 sequence (Q13490 251-363): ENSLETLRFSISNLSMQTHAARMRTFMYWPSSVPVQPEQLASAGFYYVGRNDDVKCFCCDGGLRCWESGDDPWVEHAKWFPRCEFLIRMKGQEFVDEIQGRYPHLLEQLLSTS

IC50 (GST-XIAP BIR3RING) [µM] | IC50 (GST-HIAP2 (cIAP-1) BIR 3) [µM] | IC50 (GST-HIAP1(cIAP-2) BIR 3) [µM] | IC50 [1] [µM] | IC50 [2] [µM] | IC50 [3] [µM] | Compound
< 10 | < 10 | < 10 | > 10 | > 10 |  | CC[C@H](N)C(=O)N[C@H](C(=O)N1CCC[C@H]1CNCCc1ccccc1)C(C)C [Compound 2]
< 10 | < 10 | < 10 | < 1 | > 10 | < 10 | CC(C)[C@H](NC(=O)[C@H](C)N)C(=O)N1CCC[C@H]1CN(C(=O)C(F)(F)F)[C@@H]1CCCc2ccccc21 [Compound 3]
< 10 | < 10 | < 10 | > 10 | > 10 | > 10 | CC(C)[C@H](NC(=O)[C@H](C)N)C(=O)N1CCC[C@H]1CN(C(=O)C(F)(F)F)[C@H]1CCCc2ccccc21 [Compound 4]
< 10 | < 1 | < 1 | < 1 | > 10 | < 10 | CC[C@H](N)C(=O)N[C@H](C(=O)N1CCC[C@H]1CN(CCc1ccccc1)C(C)=O)C(C)C [Compound 5]
> 10 | > 10 | > 10 | < 1 | < 10 | > 10 | CC[C@H](N)C(=O)N[C@H](C(=O)N1CCC[C@H]1CN([C@H](C)c1ccccc1)S(C)(=O)=O)C(C)C [Compound 6]
> 10 |  |  | < 1 |  | > 10 | CC[C@H](N)C(=O)N[C@H](C(=O)N1CCC[C@H]1CN(C(C)=O)[C@H](C)c1ccccc1)C(C)C [Compound 7]
> 10 | < 10 | < 10 | < 1 | > 10 | > 10 | CC(=O)N(Cc1ccccn1)C[C@@H]1CCCN1C(=O)[C@@H](NC(=O)[C@H](C)N)C(C)C [Compound 8]
< 10 | > 10 | > 10 | < 1 | > 10 | > 10 | CC[C@H](N)C(=O)N[C@H](C(=O)N1CCC[C@H]1CN(C(C)=O)[C@@H]1CCCc2ccccc21)C(C)C [Compound 9]
< 1 | < 1 | < 1 | < 10 | > 10 | > 10 | CN[C@@H](C)C(=O)N[C@H](C(=O)N1CCC[C@H]1CN(CCc1ccccc1)C(=O)C(F)(F)F)C(C)(C)C [Compound 10]
< 10 | > 10 | > 10 | < 1 | > 10 | > 10 | CC[C@H](N)C(=O)N[C@H](C(=O)N1CCC[C@H]1CN(Cc1ccccc1)C(=O)C(F)(F)F)C(C)C [Compound 12]
< 10 | < 10 | > 10 | < 10 | > 10 | > 10 | CC[C@H](N)C(=O)N[C@H](C(=O)N1CCC[C@H]1CN(C(=O)C(F)(F)F)[C@H](C)c1ccccc1)C(C)C [Compound 13]
> 10 | > 10 | > 10 | < 10 | > 10 | > 10 | CC[C@H](N)C(=O)N[C@H](C(=O)N1CCC[C@H]1CNC(=O)Cc1ccccc1)C(C)C [Compound 14]
< 1 | < 1 | < 1 | < 1 |  | > 10 | CC(C)[C@H](NC(=O)[C@H](C)N)C(=O)N1CCC[C@H]1CN(CCc1ccccc1)C(=O)c1ccccc1 [Compound 24]
< 10 | < 1 | < 1 | < 1 |  | > 10 | COCC(=O)N(CCc1ccccc1)C[C@@H]1CCCN1C(=O)[C@@H](NC(=O)[C@H](C)N)C(C)C [Compound 25]
< 1 | < 1 | < 1 | > 10 |  | > 10 | CN[C@@H](C)C(=O)N[C@H](C(=O)N1CCC[C@H]1CN(CCc1ccccc1)C(=O)OCc1ccccc1)C(C)(C)C [Compound 26]
< 1 | < 1 | < 1 | < 1 |  | > 10 | CC(C)[C@H](NC(=O)[C@H](C)N)C(=O)N1CCC[C@H]1CN(CCc1ccccc1)C(=O)COc1ccccc1 [Compound 28]
< 1 | < 1 | < 1 | < 1 |  | > 10 | CN[C@@H](C)C(=O)N[C@H](C(=O)N1CCC[C@H]1CN(CCc1ccccc1)C(=O)CN)C(C)(C)C [Compound 32]
< 1 | < 1 | < 1 | < 1 |  | > 10 | CN[C@@H](C)C(=O)N[C@H](C(=O)N1CCC[C@H]1CN(CCc1ccccc1)C(=O)CCN)C(C)(C)C [Compound 33]
< 1 | < 1 | < 1 | < 1 |  | > 10 | CNCC(=O)N(CCc1ccccc1)C[C@@H]1CCCN1C(=O)[C@@H](NC(=O)[C@H](C)NC)C(C)(C)C [Compound 34]
< 1 | < 1 | < 1 | < 1 |  | > 10 | CN[C@@H](C)C(=O)N[C@H](C(=O)N1CCC[C@H]1CN(CCc1ccccc1)C(=O)CCC(=O)O)C(C)(C)C [Compound 35]
